# Laboratory results published in patent US20230181582A1, “COMPOSITIONS AND METHODS FOR TREATING LUNG INJURIES ASSOCIATED WITH VIRAL INFECTIONS” (Qx Therapeutics Inc., priority 2020, published 2023).
# Assays:
# MAP3K2/MAP3K3 [1] = conditions: cited from earlier work; for inhibition of MAP3K2/MAP3K3-mediated phosphorylation of p47phox: substrate p47phox
# [2] = reported; cited from earlier work
# [3] = reported; cited from earlier work; remark: listed apart in the source
# mouse ALI models [4] = conditions: cited from earlier work
# MAP3K2/MAP3K3 [5] = assay: Inhibition of MAP3K2/MAP3K3-mediated phosphorylation of substrates (p47phox, MEK5); assay type: biochemical
# neutrophils = conditions: cited from earlier work
# mouse ALI models [6] = assay type: in vivo
# [7] = system: mouse coronavirus (MHV-1) induced acute lung injury model; assay: Pulmonary permeability (FITC-albumin in BAL) in mouse coronavirus (MHV-1) induced acute lung injury model; assay type: in vivo, A/J mice
# [8] = system: mouse coronavirus (MHV-1) induced acute lung injury model; assay: Survival and body weight loss in mouse coronavirus (MHV-1) induced acute lung injury model; assay type: in vivo, A/J mice; conditions: 3 mg/kgbw once daily for 5 days since 24 hr after virus inoculation
# patients = conditions: cited from earlier work
structure (smiles),measurement,setting,value
Cc1ccc(NC(=O)c2ccc(CN3CCN(C)CC3)cc2)cc1Nc1nccc(-c2cccnc2)n1 [imatinib],inhibition of MAP3K2/MAP3K3-mediated phosphorylation of p47phox,MAP3K2/MAP3K3 [1],do not inhibit
"COC(=O)c1ccc2c(c1)NC(=O)/C2=C(\Nc1ccc(N(C)C(=O)CN2CCN(C)CC2)cc1)c1ccccc1 [nintedanib, Methyl (3Z)-3-{[(4-{methyl[(4-methylpiperazin-1-yl)acetyl]amino}phenyl)amino](phenyl)methylidene}-2-oxo-2,3-dihydro-1H-indole-6-carboxylate]",half-life,[2],10 to 15 h
same,inhibition of MAP3K2/MAP3K3-mediated phosphorylation of p47phox,MAP3K2/MAP3K3 [1],also inhibits
same,protein binding,[3],97.8%
same,reduction of ALI in mouse models,mouse ALI models [4],reduce ALI
"Cc1ccc(Nc2nccc(N(C)c3ccc4c(C)n(C)nc4c3)n2)cc1S(N)(=O)=O [pazopanib, 5-({4-[(2,3-Dimethyl-2H-indazol-6-yl)methylamino]pyrimidin-2-yl}amino)-2-methylbenzenesulfonamide]",affinity as p47phox substrate-specific inhibitor for MAP3K2 and 3,MAP3K2/MAP3K3 [5],low nanomolar
same,ROS levels,neutrophils,elevates ROS levels
same,mortality rate in acid and LPS models,mouse ALI models [6]; acid and LPS ALI models,impact mortality rate
same,prophylactic effect on lung injury in acid and LPS models,"mouse ALI models [6]; acid and LPS ALI models, prophylactic",prophylactic effect
same,ameliorating ALI in the two mouse ALI/ARDS models,"mouse ALI models [6]; two mouse ALI/ARDS models, dependent on MAP3K2/3 and ROS production",effective in ameliorating ALI
same,bioavailability,[2],14-21%
same,half-life,[2],30.9 to 31.9 h
same,pulmonary permeability,"[7]; 2 doses at 3 mg/kgbw retro-orbital (24, 33 hr after 6000 PFU MHV-1), FIG. 2",significantly reduce
same,pulmonary permeability,"[7]; 3 doses at 3 mg/kgbw retro-orbital (6, 21, 32 hr after 5000 PFU MHV-1), FIG. 1",significantly reduce
same,pulmonary permeability,"[7]; one dose 3 mg/kgbw at 24 hr after virus inoculation, FIG. 3",significantly reduce
same,pulmonary permeability,"[7]; one dose 3 mg/kgbw at 48 hr after virus inoculation, FIG. 4",significantly reduce
same,pulmonary permeability,"[7]; one dose 3 mg/kgbw at 72 hr after virus inoculation, FIG. 5",negligible effect
same,survival rate,[8]; FIG. 6,does not affect
same,body weight loss,[8]; FIG. 7,does not affect
same,inhibition of other substrates of MAP3K2/MAP3K3 such as MEK5,MAP3K2/MAP3K3 [1]; substrate MEK5,μM levels
same,inhibition of MAP3K2/MAP3K3-mediated phosphorylation of p47phox,MAP3K2/MAP3K3 [1],low nM levels
same,protein binding,[3],> 99.5%
same,ILD/pneumonitis reported in patients in the clinical trials,patients; clinical trials,0.1%
same,patients who developed a pneumothorax,patients; randomized RCC trial,[t]wo of 290
same,pneumothorax occurrence in patients treated,patients; randomized STS trial (8/240),3%
